What was measured:
[1] = target: T1, Tyrosinase (Mus musculus, UniProt P11344); assay type: cell-based
T1 sequence (P11344 whole entry): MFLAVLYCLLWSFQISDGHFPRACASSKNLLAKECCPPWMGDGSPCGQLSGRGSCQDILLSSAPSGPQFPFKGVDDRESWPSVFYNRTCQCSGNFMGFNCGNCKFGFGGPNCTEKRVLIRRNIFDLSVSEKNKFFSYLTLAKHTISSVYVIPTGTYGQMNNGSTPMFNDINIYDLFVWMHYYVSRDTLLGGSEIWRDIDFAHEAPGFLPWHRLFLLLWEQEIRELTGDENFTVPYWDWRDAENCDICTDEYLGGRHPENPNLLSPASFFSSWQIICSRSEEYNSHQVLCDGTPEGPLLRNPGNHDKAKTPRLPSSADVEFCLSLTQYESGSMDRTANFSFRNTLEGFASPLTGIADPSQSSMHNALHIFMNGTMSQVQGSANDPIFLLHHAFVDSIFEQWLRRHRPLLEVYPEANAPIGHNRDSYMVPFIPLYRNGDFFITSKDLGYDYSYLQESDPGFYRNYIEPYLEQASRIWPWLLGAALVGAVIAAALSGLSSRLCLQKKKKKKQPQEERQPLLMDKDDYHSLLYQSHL
Description: Inhibition of tyrosinase in mouse B16F10 cells assessed as reduction in melanin synthesis after 2 hrs by spectrophotometric analysis

[2] = target: T2, Tyrosinase (Homo sapiens, UniProt P14679); assay: Inhibition of tyrosinase (unknown origin) assessed as reduction in diphenolase activity
T2 sequence (P14679 whole entry): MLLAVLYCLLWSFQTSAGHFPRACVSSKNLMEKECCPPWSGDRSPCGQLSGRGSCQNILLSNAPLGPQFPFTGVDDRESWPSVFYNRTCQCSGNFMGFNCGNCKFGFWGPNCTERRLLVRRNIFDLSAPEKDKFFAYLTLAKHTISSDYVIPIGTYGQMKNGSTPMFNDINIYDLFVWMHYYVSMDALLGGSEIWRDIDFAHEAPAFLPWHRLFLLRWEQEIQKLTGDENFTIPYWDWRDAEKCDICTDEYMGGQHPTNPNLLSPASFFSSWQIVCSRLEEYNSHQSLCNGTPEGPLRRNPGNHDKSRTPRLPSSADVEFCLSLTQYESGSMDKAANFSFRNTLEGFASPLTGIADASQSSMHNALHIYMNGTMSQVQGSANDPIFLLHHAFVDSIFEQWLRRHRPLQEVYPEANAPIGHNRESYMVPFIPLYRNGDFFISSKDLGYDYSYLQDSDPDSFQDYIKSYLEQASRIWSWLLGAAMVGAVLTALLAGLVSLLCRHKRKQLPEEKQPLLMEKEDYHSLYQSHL

[3] = target: T2, Tyrosinase; assay: Inhibition of tyrosinase (unknown origin) assessed as reduction in monophenolase activity
[4] = target: T1, Tyrosinase
Description: Inhibition of tyrosinase in mouse B16 cells assessed as reduction in melanin synthesis after 1 hr

[5] = target: T2, Tyrosinase
[6] = target: T3, Tyrosinase (Agaricus bisporus, UniProt O42713)
T3 sequence (O42713 whole entry): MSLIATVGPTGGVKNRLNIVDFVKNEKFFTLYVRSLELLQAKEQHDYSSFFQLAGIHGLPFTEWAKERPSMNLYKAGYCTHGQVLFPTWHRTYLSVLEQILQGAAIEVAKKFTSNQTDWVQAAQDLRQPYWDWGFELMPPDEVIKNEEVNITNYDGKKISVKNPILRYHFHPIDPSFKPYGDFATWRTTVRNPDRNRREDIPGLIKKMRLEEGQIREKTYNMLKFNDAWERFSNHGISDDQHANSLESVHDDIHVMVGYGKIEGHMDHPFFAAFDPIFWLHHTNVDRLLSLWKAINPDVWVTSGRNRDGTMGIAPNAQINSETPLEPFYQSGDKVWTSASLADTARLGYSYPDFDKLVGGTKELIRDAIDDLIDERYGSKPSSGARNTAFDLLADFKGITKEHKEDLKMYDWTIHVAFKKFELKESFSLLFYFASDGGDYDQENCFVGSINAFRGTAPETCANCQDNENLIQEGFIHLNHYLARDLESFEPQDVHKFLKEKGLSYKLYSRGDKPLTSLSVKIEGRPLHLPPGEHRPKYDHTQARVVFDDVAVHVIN
Description: Inhibition of mushroom tyrosinase

[7] = target: T4, Tyrosinase (Homo sapiens) (UniProt P14679); assay: Competitive inhibition of recombinant human tyrosinase expressed in baculovirus infected Sf9 cells using L-DOPA as substrate by double-reciprocal plot analysis
T4 sequence (whole entry): T2 sequence (P14679 whole entry)

[8] = target: T3, Tyrosinase; assay: Inhibition of Agaricus bisporus tyrosinase using L-tyrosine as substrate after 60 mins by spectrophotometric analysis
[9] = target: T5, Tyrosinase (Mus musculus) (UniProt P11344); assay: Inhibition of tyrosinase in mouse B16 cells assessed as reduction in alpha-MSH induced melanin synthesis at 30 uM relative to control; assay type: cell-based
T5 sequence (whole entry): T1 sequence (P11344 whole entry)

[10] = target: T1, Tyrosinase; assay: Inhibition of tyrosinase in mouse B16 cells assessed as reduction in alpha-MSH induced melanin synthesis; assay type: cell-based
[11] = target: T6, Tyrosinase (Danio rerio) (UniProt A0A8M1PAD4); assay: Inhibition of tyrosinase in zebrafish assessed as reduction in pigmentation level at 10 uM
T6 sequence (whole entry): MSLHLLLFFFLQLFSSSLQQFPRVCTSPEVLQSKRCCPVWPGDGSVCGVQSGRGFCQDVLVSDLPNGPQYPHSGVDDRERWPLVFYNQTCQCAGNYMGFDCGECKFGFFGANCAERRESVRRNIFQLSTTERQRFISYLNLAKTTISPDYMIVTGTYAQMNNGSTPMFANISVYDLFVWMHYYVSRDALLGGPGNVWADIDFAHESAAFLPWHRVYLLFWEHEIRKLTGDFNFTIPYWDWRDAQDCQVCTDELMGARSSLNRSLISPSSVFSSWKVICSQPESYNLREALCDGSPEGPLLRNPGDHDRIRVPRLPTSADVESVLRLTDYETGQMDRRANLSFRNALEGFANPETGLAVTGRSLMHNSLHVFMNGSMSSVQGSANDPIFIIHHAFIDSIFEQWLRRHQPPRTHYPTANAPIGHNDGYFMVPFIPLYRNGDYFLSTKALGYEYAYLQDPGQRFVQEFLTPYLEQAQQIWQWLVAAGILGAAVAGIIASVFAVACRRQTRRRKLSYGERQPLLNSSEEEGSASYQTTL

[12] = target: T4, Tyrosinase (Homo sapiens); assay: Inhibition of human tyrosinase at 1 uM using L-tyrosine as substrate after 30 mins by ELISA relative to control
[13] = target: T4, Tyrosinase (Homo sapiens); assay: Inhibition of tyrosinase in human epidemal melanocytes assessed as reduction in melanin formation at 1 uM; assay type: cell-based
[14] = target: T1, Tyrosinase; assay: Inhibition of tyrosinase in mouse B16 cells; assay type: cell-based
[15] = target: T3, Tyrosinase; assay: Inhibition of Agaricus bisporus tyrosinase using L-tyrosine as substrate after 30 mins by spectrophotometric analysis
[16] = target: T2, Tyrosinase; remark: listed apart in the source
[17] = target: T2, Tyrosinase; assay: Inhibition of human tyrosinase after 120 mins
[18] = target: T2, Tyrosinase; assay: biochemical
Description: Inhibition of recombinant human tyrosinase expressed in baculovirus infected Sf9 cells using L-DOPA as substrate by spectrophotometric analysis

[19] = Cytotoxicity against mouse B16 cells assessed as cell viability at 1000 uM after 48 hrs by MTT assay relative to control; assay type: cell-based; conditions: read-out: Activity
[20] = target: T7, Tyrosinase (Agaricus bisporus) (UniProt O42713); assay: Inhibition of Agaricus bisporus tyrosinase at 1000 uM relative to control
T7 sequence (whole entry): T3 sequence (O42713 whole entry)

[21] = target: T4, Tyrosinase (Homo sapiens); assay: Potency index, ratio of kojic acid IC50 to compound IC50 for human tyrosinase

Oc1ccc(-c2nc(-c3ccncc3)c(-c3ccc(F)cc3)[nH]2)cc1 [SB-202190]
IC50 [1]: 0.03 µM

CCCCCCn1cc(O)c(=O)cc1COC(=O)[C@@H](N)Cc1ccccc1
IC50 [2]: 42.8 µM | IC50 [3]: 19.2 µM

CC(C)=CCc1c(O)ccc(C(=O)/C=C/c2ccc(O)cc2O)c1O [MORACHALCONE A]
IC50 [4]: 3.8 µM | IC50 [5]: 0.08 to 0.82 µM

O=C1/C(=C/c2ccc(=O)n(O)c2)Oc2cc(O)ccc21
IC50 [6]: 1.5 µM | Kic [7]: 0.35 µM

Oc1ccc(/C=N/c2ccccc2)cc1
IC50 [8]: 145 µM

CC(C)=C/C=C1\O[C@@H]2CC(C)=CC(=O)[C@@H]2[C@]1(C)O [BISABOLANGELONE]
inhibition [9]: 99% | IC50 [10]: 9 µM

C[S+]([O-])c1ccc(-c2nc(-c3ccncc3)c(-c3ccc(F)cc3)[nH]2)cc1 (stereo not given) [SB-203580]
IC50 [1]: 0.034 µM

Oc1cc(O)cc(-c2cc3ccc(O)cc3o2)c1 [MORACIN M]
IC50 [5]: 8 µM

O=C1C[C@@H](c2ccc(O)cc2O)Oc2cc(O)cc(O)c21
IC50 [5]: 0.98 µM

CCCCCCCCCCCCC/C=C1\C(=O)O[C@@](C)(OC)[C@@H]1O
inhibition [11]: 25% | inhibition [12]: 50% | inhibition [13]: 40%

OC[C@H]1O[C@@H](Oc2cc(O)cc(/C=C/c3ccc(O[C@@H]4O[C@H](CO)[C@@H](O)[C@H](O)[C@H]4O)cc3O)c2)[C@H](O)[C@@H](O)[C@@H]1O [MULBERROSIDE A]
IC50 [14]: > 100 µM

C=C(C)C(=O)Cc1c(-c2ccc(O)cc2O)oc2c3c(cc(O)c2c1=O)OC(C)(C)C=C3
IC50 [5]: 290 µM

Oc1ccc(/C=C/c2cc(O)cc(O)c2)cc1 [RESVERATROL]
IC50 [5]: 250 µM

COc1ccc(/N=C/c2ccc(O)cc2O)cc1
IC50 [15]: 51.5 µM

CC(C)=CCc1c(O)ccc(C[C@@H]2[C@H](c3c(O)ccc(C(=O)/C=C/c4ccc(O)cc4O)c3O)C=C(C)C[C@H]2c2ccc(O)cc2O)c1O
IC50 [5]: 4.62 µM

O=C1/C(=C/c2ccc(O)cc2)Oc2cccc(O)c21
IC50 [6]: 31.7 µM

CN(C)c1ccc(/C=C/C(=N\O)c2ccccc2O)cc1
IC50 [5]: 7.89 µM

Oc1cc(O)cc(CCc2ccc(O)cc2O)c1
IC50 [14]: 0.3 µM

COc1cc([N+](=O)[O-])ccc1/C=C/C(=N\O)c1ccccc1O
IC50 [5]: 4.77 µM

CCCCCCCCn1cc(O)c(=O)cc1COC(=O)[C@@H](N)Cc1ccccc1
IC50 [2]: 12.6 µM | IC50 [3]: 12.6 µM

N[C@@H](Cc1ccccc1)C(=O)N[C@@H](Cc1ccccc1)C(=O)OCc1cc(=O)c(O)c[nH]1
IC50 [2]: 26.2 µM | IC50 [3]: 8.97 µM

O=C(N[C@@H](Cc1ccccc1)C(=O)OCc1cc(=O)c(O)c[nH]1)OCc1ccccc1
IC50 [2]: 2.79 µM | IC50 [3]: 1.95 µM

COc1ccc(/C=N/c2ccccc2)cc1
IC50 [8]: 212 µM

Cc1ccc(S(=O)(=O)Oc2ccccc2/N=N/c2ccc(O)cc2O)cc1
IC50 [15]: 17.9 µM

C/C(=C\Cc1c(O)ccc(C(=O)/C=C/c2ccc(O)cc2O)c1O)CO
IC50 [4]: 4 µM | IC50 [5]: 0.17 µM

Cc1ccc(S(=O)(=O)Oc2ccccc2/N=N/c2ccc(O)cc2)cc1
IC50 [15]: 201 µM

Oc1ccc(O)cc1 [HYDROQUINONE]
IC50 [16]: 4400 µM

O=C(O)/C=C/c1ccc(O)cc1 [COUMARIC ACID]
IC50 [17]: 3 µM

O=C1/C(=C/c2ccc(=O)n(O)c2)Oc2cc(O)cc(O)c21
IC50 [18]: 30 µM

Oc1cccc(/C=C/c2ccc(O)cc2O)c1
IC50 [14]: 0.8 µM

COc1ccc(/N=C/c2ccc(O)c(O)c2)cc1
IC50 [15]: 61.7 µM

CC(C)=CCC[C@](C)(O[C@@H]1O[C@H](CO[C@@H]2O[C@H](CO)[C@@H](O)[C@H](O)[C@H]2O)[C@@H](O)[C@H](O)[C@H]1O)[C@H]1CC[C@]2(C)[C@@H]1[C@H](O)C[C@@H]1[C@@]3(C)CC[C@H](O[C@@H]4O[C@H](CO)[C@@H](O)[C@H](O)[C@H]4O[C@@H]4O[C@H](CO)[C@@H](O)[C@H](O)[C@H]4O)C(C)(C)[C@@H]3CC[C@]12C [GINSENOSIDE RB1]
viability at 48 h, 1000 µM [19]: 4.67%

Oc1ccc(/N=C/c2ccc(O)c(O)c2)cc1
IC50 [15]: 17.2 µM

Oc1ccccc1/C=N/c1ccccc1 [2-((PHENYLIMINO)METHYL)PHENOL]
IC50 [8]: 250 µM

Oc1ccc(/N=N/c2ccccc2O)cc1
IC50 [15]: 44.1 µM

C=C1OC(=O)/C(=C\CCCCCCCCCCCCC)[C@H]1O
inhibition [11]: 30% | inhibition [12]: 50% | inhibition [13]: 40%

COc1ccc(NC(=O)/C=C/c2ccc(O)c(O)c2)cc1
inhibition [20]: 36.8%

O=C1/C(=C/c2ccc(O)cc2)Oc2cc(O)cc(O)c21
IC50 [6]: 38.7 µM

O=C1/C(=C/c2ccc(O)cc2)Oc2cc(O)ccc21
IC50 [6]: 38.4 µM

O=C(/C=C/c1ccc(O)cc1O)c1ccc(O)cc1O
IC50 [4]: 5 µM | IC50 [5]: 0.07 to 0.21 µM

CCCCc1ccc(O)cc1O [RUCINOL]
Ratio IC50 [21]: 20 | IC50 [16]: 21 µM
